Reference: paper PMC5796017, “Enantiomeric Effect of D-Amino Acid Substitution on the Mechanism of Action of α-Helical Membrane-Active Peptides” (International Journal of Molecular Sciences, 2017)
≈ marks a conversion by molar mass, not a printed value.

Assays:
[1] = RP-HPLC retention time as relative hydrophobicity; format: physicochemical; details: 25 °C, used by the paper as measure of relative hydrophobicity
Experimental: The RP-HPLC retention time has been widely used to represent the relative hydrophobicity of peptides in many studies.The relative hydrophobicity of the peptides was determined by the RP-HPLC retention times at 25 °C. The change in hydrophobicity of the peptides caused by D-amino acid substitutions was mainly due to the disruption of the helical structure.

[2] = Circular dichroism (CD) secondary structure; format: physicochemical
In short: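 Peptide secondary structure was measured by circular dichroism on a Jasco J-810 CD spectrometer at 25 °C, in benign KP buffer to mimic a hydrophilic environment and in 50% 2,2,2-trifluoroethanol (benign buffer: TFE = 1:1, vol/vol) to mimic a membrane-like hydrophobic environment. Mean residue molar ellipticity at 222 nm, [θ]222 (degree·cm^2·dmol^−1), calculated as [θ] = θ/10lCMn, gave relative helical content.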

S. aureus ATCC25923 = assay: Antimicrobial activity, microtiter dilution MIC; format: cell-based, Staphylococcus aureus; details: G+; MH medium, 5 × 10^5 CFU/mL, 37 °C, 24 h, triplicate
In short: (§1)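 Broth microdilution in Mueller–Hinton medium, inoculum 5 × 10^5 CFU/mL, serially diluted peptide, 24 h at 37 °C. MIC taken as lowest peptide concentration preventing growth; triplicate runs.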

S. epidermidis ATCC12228 = assay: Antimicrobial activity, microtiter dilution MIC; format: cell-based, Staphylococcus epidermidis; details: G+; MH medium, 5 × 10^5 CFU/mL, 37 °C, 24 h, triplicate
In short: as §1

P. aeruginosa ATCC27853 = assay: Antimicrobial activity, microtiter dilution MIC; format: cell-based, Pseudomonas aeruginosa; details: G−; MH medium, 5 × 10^5 CFU/mL, 37 °C, 24 h, triplicate
In short: as §1

E. coli ATCC25922 [3] = assay: Antimicrobial activity, microtiter dilution MIC; format: cell-based, Escherichia coli; details: G−; MH medium, 5 × 10^5 CFU/mL, 37 °C, 24 h, triplicate
In short: as §1

E. coli ATCC25922 [4] = assay: Outer membrane permeability assay (NPN uptake); format: cell-based, Escherichia coli; details: 16 μM peptide, 10 min, excitation 350 nm, emission 420 nm
Excerpt: To explore the potential role of the helicity of the peptides in damaging cell membranes, we investigated the disruption of the outer membrane of Escherichia coli (E. coli) by quantifying the fluorescence intensity of 1-N-phenylnaphthylamine (NPN), which is a hydrophobic fluorescent probe. The intensity of NPN is weak in a hydrophilic environment. The fluorescence intensity of NPN gradually increases as it is exposed to a more hydrophobic environment due to damage to the bacterial outer membrane by MAPs.
The outer membrane permeability of the peptides against E. coli ATCC25922 was evaluated using the hydrophobic fluorescent probe NPN, as performed previously. In brief, E. coli was cultured in LB medium at 37 °C until the absorbance of the bacterial suspension at 600 nm was 0.4–0.6, the bacterial pellet was collected by centrifugation and resuspended in a reaction buffer (pH 7.4, 5 mM HEPES, 5 mM NaN3, 0.25 mM NPN) until the absorbance at 600 nm was 0.5. Then, an aliquot of the peptide sample and the bacterial suspension were co-incubated to give a final peptide concentration of 16 μM. The same volume of reaction buffer was used as the negative control. A Shimadzu RF-5301 PC fluorescent spectrometer (excitation wavelength of 350 nm, emission wavelength of 420 nm) was used to collect data continuously for 10 min.

E. coli ATCC25922 [5] = assay: AFM imaging; format: cell-based, Escherichia coli; details: treatment 30 min, imaged in air, contact mode
Experimental: The mechanism of the interaction of the peptides with the different kinds of membranes was further analyzed by AFM. E. coli and HeLa cells were imaged to observe the morphologic change of cell membranes with, and without, treatment with V13K. […] Similarly, the surface of untreated cells fixed with, or without, 4% paraformaldehyde were intact and the membrane surface appeared quite smooth (Figure 4E–H).
The AFM imaging of E. coli ATCC25922 and HeLa cells before, and after, incubation with V13K were performed using an AFM 5500 (Agilent Technologies, Chandler, AZ, USA). The AFM imaging of E. coli was used on the contact mode and the cantilever was used as the B-tip (DNP, B-tip, Bruker AFM probes, California, CA, USA). The AFM imaging of HeLa was used on the AAC mode and the cantilever was used as the D-tip (DNP, D-tip, Bruker AFM probes, Camarillo, California, CA, USA). A single bacterial colony was picked and cultured in Mueller–Hinton (MH) medium for 18–20 h. […] The E. coli and peptide-treated bacteria samples (after treatment for 30 min) were applied onto mica and imaged in air using the contact mode and recorded with 512 × 512 pixels. The images of HeLa cells and peptide-treated HeLa cells (after treatment for 5 min) were obtained in Dulbecco’s Modified Eagle’s medium (DMEM) using the Acoustic AC (AAC) mode and recorded with 512 × 512 pixels. […]

## CC[C@H](C)[C@H](NC(=O)[C@H](C)NC(=O)[C@H](CCCCN)NC(=O)[C@H](CC(C)C)NC(=O)[C@H](C)NC(=O)[C@@H](NC(=O)[C@H](Cc1cnc[nH]1)NC(=O)[C@H](CC(C)C)NC(=O)[C@@H](NC(=O)[C@@H](NC(=O)[C@H](CCCCN)NC(=O)[C@H](CCCCN)NC(=O)[C@H](C)NC(=O)[C@H](CO)NC(=O)[C@H](CCCCN)NC(=O)[C@H](Cc1ccccc1)NC(=O)[C@@H](NC(=O)[C@H](CCCCN)NC(=O)[C@H](CC(C)C)NC(=O)[C@H](Cc1ccccc1)NC(=O)[C@H](CO)NC(=O)[C@H](CCCCN)NC(=O)[C@H](Cc1c[nH]c2ccccc12)NC(=O)[C@H](CCCCN)NC(C)=O)[C@@H](C)O)[C@@H](C)O)C(C)C)[C@@H](C)O)C(=O)N[C@@H](CO)C(=O)N[C@@H](CO)C(N)=O [Peptide V13K]
[1]
  tR (RP-HPLC retention time), relative hydrophobicity: 44.48 min
[2]; CD, KP buffer (100 mM KCl, 50 mM KH2PO4/K2HPO4, pH 7.4), 75 μM peptide, 25 °C
  [θ]222, benign: −5617.46 degree·cm^2·dmol^−1
[2]; CD, KP buffer with 50% TFE, 75 μM peptide, 25 °C
  [θ]222, 50% TFE: −50,520.3 degree·cm^2·dmol^−1
[2]; KP buffer with 50% TFE, relative to molar ellipticity of V13K in 50% TFE
  α-Helix (%), 50% TFE (relative helicity): 100%
[2]; KP buffer, relative to molar ellipticity of V13K in 50% TFE
  α-Helix (%), benign: 11.1%
S. aureus ATCC25923
  MIC: 32 µM (≈ 95.7 µg/mL)
S. epidermidis ATCC12228
  MIC: 4 µM (≈ 12 µg/mL)
P. aeruginosa ATCC27853
  MIC: 8 µM (≈ 23.9 µg/mL)
E. coli ATCC25922 [3]
  MIC: 8 µM (≈ 23.9 µg/mL)
E. coli ATCC25922 [4]
  Outer membrane permeabilization, NPN fluorescence intensity: enhanced
E. coli ATCC25922 [5]
  Morphology of bacterial membrane by AFM: obvious damage to the morphology of bacterial membrane
